The values that follow come from ChEMBL document CHEMBL3525934 (Drug Metab Dispos, 2013).

SMILES strings stand for the structures.

Type in all cases: ADME
Settings in all cases: 0.5 h

The target of data set [1] is T1, Cytochrome P450 2C8 (Homo sapiens, UniProt P10632).
T1 sequence (P10632 whole entry): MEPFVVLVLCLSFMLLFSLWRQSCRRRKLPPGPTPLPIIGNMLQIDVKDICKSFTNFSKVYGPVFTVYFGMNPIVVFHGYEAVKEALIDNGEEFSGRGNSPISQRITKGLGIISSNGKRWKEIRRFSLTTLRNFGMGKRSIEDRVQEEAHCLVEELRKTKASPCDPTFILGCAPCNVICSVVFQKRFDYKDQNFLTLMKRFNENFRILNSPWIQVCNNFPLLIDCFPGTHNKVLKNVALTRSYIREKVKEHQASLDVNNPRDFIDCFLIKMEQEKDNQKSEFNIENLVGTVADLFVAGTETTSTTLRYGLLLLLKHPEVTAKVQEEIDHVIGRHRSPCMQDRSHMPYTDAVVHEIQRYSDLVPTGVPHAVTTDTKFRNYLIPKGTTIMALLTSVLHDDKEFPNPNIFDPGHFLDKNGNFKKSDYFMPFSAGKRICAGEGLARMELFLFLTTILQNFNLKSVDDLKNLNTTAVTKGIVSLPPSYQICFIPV
The experiment in a line: Drug metabolism in supersomes expressing human recombinant CYP2C8 assessed as enzyme-mediated clozapine-N-oxide metabolite formation at 10 uM after 30 mins measured per nmol of P450 by HPLC analysis.

Data set [2] has as its target T2, Cytochrome P450 2C18 (Homo sapiens, UniProt P33260).
T2 sequence (P33260 whole entry): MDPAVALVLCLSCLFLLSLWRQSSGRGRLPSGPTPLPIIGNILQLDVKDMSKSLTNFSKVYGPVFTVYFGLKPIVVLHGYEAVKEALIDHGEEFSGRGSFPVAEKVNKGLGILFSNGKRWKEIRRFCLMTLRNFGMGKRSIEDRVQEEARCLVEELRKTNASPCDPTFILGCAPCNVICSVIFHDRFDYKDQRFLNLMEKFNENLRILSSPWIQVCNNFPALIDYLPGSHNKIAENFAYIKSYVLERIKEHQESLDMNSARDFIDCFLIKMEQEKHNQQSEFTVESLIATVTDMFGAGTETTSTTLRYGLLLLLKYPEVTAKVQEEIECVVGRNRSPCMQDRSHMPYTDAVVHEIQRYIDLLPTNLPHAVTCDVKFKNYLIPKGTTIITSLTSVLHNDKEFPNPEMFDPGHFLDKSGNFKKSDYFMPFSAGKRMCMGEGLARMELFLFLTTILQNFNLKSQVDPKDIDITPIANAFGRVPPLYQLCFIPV
In words: Drug metabolism in supersomes expressing human recombinant CYP2C18 assessed as enzyme-mediated N-desmethylclozapine metabolite formation at 10 uM after 30 mins measured per nmol of P450 by HPLC analysis.

In data set [3] the target is T3, Cytochrome P450 1A1 (Homo sapiens, UniProt P04798).
T3 sequence (P04798 whole entry): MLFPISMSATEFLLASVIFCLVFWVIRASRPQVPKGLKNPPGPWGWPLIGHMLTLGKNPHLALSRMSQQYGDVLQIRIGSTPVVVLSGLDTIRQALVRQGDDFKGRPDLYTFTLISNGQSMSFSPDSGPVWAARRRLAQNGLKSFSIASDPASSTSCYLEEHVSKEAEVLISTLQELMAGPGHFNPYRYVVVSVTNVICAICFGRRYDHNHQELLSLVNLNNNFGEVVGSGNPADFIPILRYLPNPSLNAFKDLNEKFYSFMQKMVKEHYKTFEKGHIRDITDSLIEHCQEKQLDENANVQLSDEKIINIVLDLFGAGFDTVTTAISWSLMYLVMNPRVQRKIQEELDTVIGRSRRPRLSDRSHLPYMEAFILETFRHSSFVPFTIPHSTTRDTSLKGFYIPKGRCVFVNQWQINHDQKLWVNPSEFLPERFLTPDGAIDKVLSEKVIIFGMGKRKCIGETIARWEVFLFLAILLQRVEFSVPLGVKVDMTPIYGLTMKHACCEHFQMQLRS
The experiment in a line: Drug metabolism in supersomes expressing human recombinant CYP1A1 assessed as enzyme-mediated total GSH conjugate formation at 100 uM after 30 mins measured per nmol of P450 by HPLC analysis in presence of GSH and hGST P1-1.

The target in data set [4] is Cytochrome P450 2C9 (Homo sapiens, UniProt P11712). In words: Drug metabolism in supersomes expressing human recombinant CYP2C9 assessed as enzyme-mediated N-desmethylclozapine metabolite formation at 10 uM after 30 mins measured per nmol of P450 by HPLC analysis.
Sequence of Cytochrome P450 2C9 (P11712 whole entry): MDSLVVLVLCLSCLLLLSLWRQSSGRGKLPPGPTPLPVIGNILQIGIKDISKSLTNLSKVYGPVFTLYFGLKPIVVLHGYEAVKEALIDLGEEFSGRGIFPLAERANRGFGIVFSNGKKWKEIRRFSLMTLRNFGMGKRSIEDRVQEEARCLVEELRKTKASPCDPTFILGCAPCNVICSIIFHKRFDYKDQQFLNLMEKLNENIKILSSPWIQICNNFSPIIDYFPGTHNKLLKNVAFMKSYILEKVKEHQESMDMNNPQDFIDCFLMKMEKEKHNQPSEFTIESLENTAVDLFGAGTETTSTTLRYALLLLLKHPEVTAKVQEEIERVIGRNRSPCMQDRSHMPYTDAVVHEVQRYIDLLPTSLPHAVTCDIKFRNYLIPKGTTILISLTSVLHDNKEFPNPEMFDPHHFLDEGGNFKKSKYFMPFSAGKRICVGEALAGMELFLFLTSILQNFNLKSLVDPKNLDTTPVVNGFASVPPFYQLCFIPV
Data set [5] addresses T4, Cytochrome P450 1A2 (Homo sapiens, UniProt P05177).
T4 sequence (P05177 whole entry): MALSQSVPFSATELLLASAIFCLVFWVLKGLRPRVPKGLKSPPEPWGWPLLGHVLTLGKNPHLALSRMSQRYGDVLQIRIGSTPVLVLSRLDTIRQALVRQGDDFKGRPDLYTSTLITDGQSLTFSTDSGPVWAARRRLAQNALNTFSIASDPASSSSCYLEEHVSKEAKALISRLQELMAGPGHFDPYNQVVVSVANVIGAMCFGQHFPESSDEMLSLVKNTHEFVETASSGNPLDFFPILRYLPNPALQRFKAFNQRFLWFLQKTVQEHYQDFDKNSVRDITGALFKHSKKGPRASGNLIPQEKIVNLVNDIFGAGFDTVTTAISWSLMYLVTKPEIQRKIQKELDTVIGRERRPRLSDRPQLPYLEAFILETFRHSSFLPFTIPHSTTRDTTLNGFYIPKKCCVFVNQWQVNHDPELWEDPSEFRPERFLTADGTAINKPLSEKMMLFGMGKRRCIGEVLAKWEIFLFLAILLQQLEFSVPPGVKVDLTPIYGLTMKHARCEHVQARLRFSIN
The experiment in a line: Drug metabolism in supersomes expressing human recombinant CYP1A2 assessed as enzyme-mediated total GSH conjugate formation at 100 uM after 30 mins measured per nmol of P450 by HPLC analysis in presence of GSH and hGST P1-1.

Data set [6] addresses T4, Cytochrome P450 1A2. The experiment in a line: Drug metabolism in supersomes expressing human recombinant CYP1A2 assessed as enzyme-mediated total GSH conjugate formation at 10 uM after 30 mins measured per nmol of P450 by HPLC analysis in presence of GSH and hGST P1-1.
The target in data set [7] is T5, Cytochrome P450 2C19 (Homo sapiens, UniProt P33261). In words: Drug metabolism in supersomes expressing human recombinant CYP2C19 assessed as enzyme-mediated cyanide adduct formation at 100 uM after 30 mins measured per nmol of P450 by HPLC analysis in presence of KCN.
T5 sequence (P33261 whole entry): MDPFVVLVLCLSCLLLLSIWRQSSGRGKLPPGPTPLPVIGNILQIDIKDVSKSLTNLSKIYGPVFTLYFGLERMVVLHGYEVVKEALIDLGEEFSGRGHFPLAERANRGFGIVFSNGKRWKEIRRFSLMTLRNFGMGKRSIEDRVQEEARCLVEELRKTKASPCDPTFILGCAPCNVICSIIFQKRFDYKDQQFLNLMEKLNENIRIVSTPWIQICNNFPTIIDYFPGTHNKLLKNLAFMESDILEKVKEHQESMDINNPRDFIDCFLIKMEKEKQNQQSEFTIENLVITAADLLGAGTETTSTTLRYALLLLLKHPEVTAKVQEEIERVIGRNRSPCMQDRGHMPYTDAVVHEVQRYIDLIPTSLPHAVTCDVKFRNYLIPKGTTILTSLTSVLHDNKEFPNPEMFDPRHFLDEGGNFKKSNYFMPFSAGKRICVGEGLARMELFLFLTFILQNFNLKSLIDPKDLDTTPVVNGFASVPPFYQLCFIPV
The target of data set [8] is T5, Cytochrome P450 2C19. The experiment in a line: Drug metabolism in supersomes expressing human recombinant CYP2C19 assessed as enzyme-mediated N-desmethylclozapine metabolite formation at 100 uM after 30 mins measured per nmol of P450 by HPLC analysis.
In data set [9] the target is T3, Cytochrome P450 1A1. The experiment in a line: Drug metabolism in supersomes expressing human recombinant CYP1A1 assessed as enzyme-mediated N-desmethylclozapine metabolite formation at 100 uM after 30 mins measured per nmol of P450 by HPLC analysis.
Data set [10] deals with T5, Cytochrome P450 2C19. The experiment in a line: Drug metabolism in supersomes expressing human recombinant CYP2C19 assessed as enzyme-mediated N-desmethylclozapine metabolite formation at 10 uM after 30 mins measured per nmol of P450 by HPLC analysis.
Data set [11] has as its target T3, Cytochrome P450 1A1. The experiment in a line: Drug metabolism in supersomes expressing human recombinant CYP1A1 assessed as enzyme-mediated N-desmethylclozapine metabolite formation at 10 uM after 30 mins measured per nmol of P450 by HPLC analysis.

Consider `CN1CCN(C2=Nc3cc(Cl)ccc3Nc3ccccc32)CC1` [CLOZAPINE], for which the Drug metabolism in data set [1] was 0.1 nmol/min; in data set [2], 4.08 nmol/min/nmol P450; in data set [3], 0.32 nmol/min; in data set [4], 0.33 nmol/min; in [5] it was 0.25 nmol/min; in [6], 0.06 nmol/min. Also, the Drug metabolism in data set [7] came to 0.03 nmol/min; in data set [8], 5.11 nmol/min; in data set [9], 0.56 nmol/min; in [10], 6.62 nmol/min/nmol P450; in data set [11] it was 0.64 nmol/min.
